Measurements reported in patent US20250312462A1, “PAK1 DEGRADERS AND METHODS OF USE THEREOF” (INSTITUTE FOR CANCER RESEARCH D/B/A THE RESEARCH INSTITUTE …, priority 2022, published 2025).

How the values were obtained:
[1] = target: IKK-beta (Homo sapiens, UniProt O14920); assay: KINOMEscan; details: read-out: Percent Control
Description: (§1) The kinase engagement assay (KINOMEscan®) was performed by DiscoverX assessing binding abilities toward a set of kinases.

[2] = target: PAK1 (Homo sapiens, UniProt Q13153); assay: PAK1 degradation in Panc1 cells, Western blot; type: cell-based; set-up: endogenous in cells; details: compared with BJG-05-014 and BJG-05-027
Description: In vitro kinase assays were performed using recombinant PAK1 and PAK2, using a library of small molecule protein kinase inhibitors. […] FIG. 1C is a series of Western blots showing the degradation of PAK1 in Panc1 cells by the NVS-PAK1-1-based (allosteric) degraders BJG-05-014, BJG-05-027, and BJG-05-039. Quantification is shown below in the bar graph. FIG. 1D is a series of Western blots showing PAK1, PAK2, and GAPDH in Panc1 cells treated with the indicated amounts of the NVS-PAK1-1-based degrader BJG-05-039 and ATP-competitive degraders BJG-05-093, BJG-05-094, and BJG-05-095.
BJG-05-014, BJG-05-027, and BJG-05-039 were tested in Panc1 cells for their ability to degrade PAK1.

[3] = target: ROS1 (Homo sapiens, UniProt P08922); assay: KINOMEscan; details: read-out: Percent Control
Description: as §1

[4] = target: BRAF(V600E) (Homo sapiens, UniProt P15056, V600E); assay: KINOMEscan; details: read-out: Percent Control
BRAF(V600E), sequence (P15056 whole entry V600E): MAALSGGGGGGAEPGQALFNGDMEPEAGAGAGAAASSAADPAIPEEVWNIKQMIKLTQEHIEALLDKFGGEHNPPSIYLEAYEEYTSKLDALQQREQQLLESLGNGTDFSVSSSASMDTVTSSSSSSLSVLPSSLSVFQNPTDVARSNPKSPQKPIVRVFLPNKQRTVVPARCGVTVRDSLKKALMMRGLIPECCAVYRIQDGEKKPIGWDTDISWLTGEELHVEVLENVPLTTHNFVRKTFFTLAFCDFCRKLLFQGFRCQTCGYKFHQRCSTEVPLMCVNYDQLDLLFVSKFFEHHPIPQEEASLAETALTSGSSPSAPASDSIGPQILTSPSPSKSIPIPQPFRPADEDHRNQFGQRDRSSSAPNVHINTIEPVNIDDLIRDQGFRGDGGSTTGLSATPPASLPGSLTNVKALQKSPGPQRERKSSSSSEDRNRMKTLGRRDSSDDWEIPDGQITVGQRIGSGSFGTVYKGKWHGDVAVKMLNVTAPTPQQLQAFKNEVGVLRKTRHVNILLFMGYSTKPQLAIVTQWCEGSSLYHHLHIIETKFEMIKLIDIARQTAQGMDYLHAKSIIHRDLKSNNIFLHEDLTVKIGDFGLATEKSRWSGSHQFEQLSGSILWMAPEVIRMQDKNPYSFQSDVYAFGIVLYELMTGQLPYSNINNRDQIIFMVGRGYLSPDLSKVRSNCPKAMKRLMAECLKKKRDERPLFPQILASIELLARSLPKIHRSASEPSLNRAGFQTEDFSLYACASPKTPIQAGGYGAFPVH
Description: as §1

[5] = target: ICK (Homo sapiens, UniProt Q9UPZ9); assay: KINOMEscan; details: read-out: Percent Control
ICK, sequence (Q9UPZ9 whole entry): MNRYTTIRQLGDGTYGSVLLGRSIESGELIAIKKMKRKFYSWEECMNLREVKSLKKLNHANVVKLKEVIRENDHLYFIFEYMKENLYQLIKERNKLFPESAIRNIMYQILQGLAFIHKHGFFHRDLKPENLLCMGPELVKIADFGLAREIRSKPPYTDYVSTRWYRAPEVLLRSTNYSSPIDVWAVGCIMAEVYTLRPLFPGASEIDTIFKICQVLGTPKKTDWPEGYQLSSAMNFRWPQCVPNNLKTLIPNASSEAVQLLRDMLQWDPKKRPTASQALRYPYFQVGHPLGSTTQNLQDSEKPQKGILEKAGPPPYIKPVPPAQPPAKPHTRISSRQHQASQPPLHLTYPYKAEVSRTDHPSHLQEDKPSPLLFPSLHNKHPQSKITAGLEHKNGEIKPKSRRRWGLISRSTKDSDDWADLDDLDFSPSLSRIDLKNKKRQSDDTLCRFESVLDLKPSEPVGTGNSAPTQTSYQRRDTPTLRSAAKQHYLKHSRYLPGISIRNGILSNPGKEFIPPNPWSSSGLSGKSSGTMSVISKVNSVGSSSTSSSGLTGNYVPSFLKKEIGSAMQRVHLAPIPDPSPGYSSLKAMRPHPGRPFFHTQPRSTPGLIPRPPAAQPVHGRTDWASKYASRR
Description: as §1

[6] = target: PAK3 (Homo sapiens, UniProt O75914); assay: KINOMEscan; details: read-out: Percent Control
Description: as §1

[7] = test system: MEK1 at S298; assay: MEK phosphorylation in OVCAR3 and MCF7 cells, immunoblot; type: cell-based; details: 10 nM, 24 hours
Description: FIG. 3A is a series of Western blots showing OVCAR3 and MCF7 cells that were treated for 24 hours with DMSO, 10 nM BJG-05-039, or NVS-PAK1-1 as indicated. MEK and ERK phosphorylation was assessed by immunoblot with the indicated phosphorylation-specific antibodies. FIG. 3B is a Western blot showing MCF7 cells that were stably transduced with a doxycycline-regulated shRNA against PAK1. shRNA expression was induced by the indicated amounts of doxycycline and immunoblots were performed using cell lysates 24 hours post doxycycline addition. FIG. 3C is a Western blot showing MCF7 cells that were treated with vehicle or […] doxycycline. Immunoblots were performed using cell lysates 24 hours post doxycycline addition.
Cells were washed once in PBS and lysed in RIPA buffer (50 mM Tris-HCl, 150 mM NaCl, 0.25% (w/v) sodium deoxycholate, 1% (w/v) NP-40, pH 7.5) containing protease inhibitor cocktail (Roche) and phosphatase inhibitor cocktail (Roche) for 30 minutes on ice. […]
In certain cell lines, PAK1 has well-characterized functions in regulating proliferative signaling. […] As a readout for anti-PAK activity, phosphorylation of MEK1 at S298 was assessed, a direct target site for Group A PAKs (Coles, et al. (2002) Oncogene 21:2236-2244; Slack-Davis, et al. (2003) J. Cell. Biol., 162:281-291), as well as phosphorylation of the downstream target of MEK, ERK. […]

[8] = target: ABL1-nonphosphorylated (Homo sapiens, UniProt P00519); assay: KINOMEscan; details: read-out: Percent Control
ABL1-nonphosphorylated, sequence (P00519 whole entry): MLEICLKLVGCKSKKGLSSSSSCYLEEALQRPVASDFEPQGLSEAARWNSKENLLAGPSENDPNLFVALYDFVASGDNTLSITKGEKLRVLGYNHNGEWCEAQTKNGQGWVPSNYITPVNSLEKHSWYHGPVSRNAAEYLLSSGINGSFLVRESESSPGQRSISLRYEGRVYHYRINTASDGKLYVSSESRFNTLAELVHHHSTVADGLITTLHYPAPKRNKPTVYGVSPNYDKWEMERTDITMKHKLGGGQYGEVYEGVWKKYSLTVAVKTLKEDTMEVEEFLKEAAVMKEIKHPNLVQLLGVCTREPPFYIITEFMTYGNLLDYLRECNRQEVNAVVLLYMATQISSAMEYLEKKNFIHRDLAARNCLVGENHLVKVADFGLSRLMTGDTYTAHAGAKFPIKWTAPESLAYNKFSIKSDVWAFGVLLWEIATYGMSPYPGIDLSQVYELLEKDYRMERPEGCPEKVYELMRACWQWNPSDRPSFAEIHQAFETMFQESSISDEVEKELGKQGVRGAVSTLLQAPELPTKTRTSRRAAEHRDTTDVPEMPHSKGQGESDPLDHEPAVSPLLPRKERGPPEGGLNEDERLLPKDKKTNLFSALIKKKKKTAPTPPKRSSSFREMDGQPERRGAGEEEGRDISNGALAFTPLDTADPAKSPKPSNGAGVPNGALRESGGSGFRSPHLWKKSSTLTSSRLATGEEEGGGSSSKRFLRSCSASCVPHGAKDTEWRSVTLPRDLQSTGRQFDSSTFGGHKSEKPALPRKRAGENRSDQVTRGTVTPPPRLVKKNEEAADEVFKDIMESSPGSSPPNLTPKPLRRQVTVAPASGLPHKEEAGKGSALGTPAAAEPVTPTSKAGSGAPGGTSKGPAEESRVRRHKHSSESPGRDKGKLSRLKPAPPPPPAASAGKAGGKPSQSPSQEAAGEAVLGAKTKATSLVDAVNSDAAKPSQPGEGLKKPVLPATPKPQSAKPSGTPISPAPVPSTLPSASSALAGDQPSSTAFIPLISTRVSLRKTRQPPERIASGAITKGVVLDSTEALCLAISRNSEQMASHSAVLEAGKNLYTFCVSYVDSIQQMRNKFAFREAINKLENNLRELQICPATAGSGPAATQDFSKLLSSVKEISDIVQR
Description: as §1

[9] = target: SGK2 (Homo sapiens, UniProt Q9HBY8); assay: KINOMEscan; details: read-out: Percent Control
SGK2, sequence (Q9HBY8 whole entry): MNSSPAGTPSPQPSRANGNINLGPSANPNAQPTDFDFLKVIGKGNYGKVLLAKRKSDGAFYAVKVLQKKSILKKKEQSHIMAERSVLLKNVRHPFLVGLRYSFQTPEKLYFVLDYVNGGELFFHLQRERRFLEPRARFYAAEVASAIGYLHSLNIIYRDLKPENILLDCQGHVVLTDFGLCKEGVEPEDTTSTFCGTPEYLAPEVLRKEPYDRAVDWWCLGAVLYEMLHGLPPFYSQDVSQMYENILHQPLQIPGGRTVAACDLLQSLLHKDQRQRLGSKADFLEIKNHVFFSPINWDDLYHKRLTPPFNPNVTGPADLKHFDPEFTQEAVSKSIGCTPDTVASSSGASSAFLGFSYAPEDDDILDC
Description: as §1

[10] = target: YANK1 (Homo sapiens, UniProt Q8WU08); assay: KINOMEscan; details: read-out: Percent Control
Description: as §1

[11] = target: CDC2L1 (Homo sapiens, UniProt P21127); assay: KINOMEscan; details: read-out: Percent Control
Description: as §1

[12] = target: MAST1 (Homo sapiens, UniProt Q9Y2H9); assay: KINOMEscan; details: read-out: Percent Control
MAST1, sequence (Q9Y2H9 whole entry): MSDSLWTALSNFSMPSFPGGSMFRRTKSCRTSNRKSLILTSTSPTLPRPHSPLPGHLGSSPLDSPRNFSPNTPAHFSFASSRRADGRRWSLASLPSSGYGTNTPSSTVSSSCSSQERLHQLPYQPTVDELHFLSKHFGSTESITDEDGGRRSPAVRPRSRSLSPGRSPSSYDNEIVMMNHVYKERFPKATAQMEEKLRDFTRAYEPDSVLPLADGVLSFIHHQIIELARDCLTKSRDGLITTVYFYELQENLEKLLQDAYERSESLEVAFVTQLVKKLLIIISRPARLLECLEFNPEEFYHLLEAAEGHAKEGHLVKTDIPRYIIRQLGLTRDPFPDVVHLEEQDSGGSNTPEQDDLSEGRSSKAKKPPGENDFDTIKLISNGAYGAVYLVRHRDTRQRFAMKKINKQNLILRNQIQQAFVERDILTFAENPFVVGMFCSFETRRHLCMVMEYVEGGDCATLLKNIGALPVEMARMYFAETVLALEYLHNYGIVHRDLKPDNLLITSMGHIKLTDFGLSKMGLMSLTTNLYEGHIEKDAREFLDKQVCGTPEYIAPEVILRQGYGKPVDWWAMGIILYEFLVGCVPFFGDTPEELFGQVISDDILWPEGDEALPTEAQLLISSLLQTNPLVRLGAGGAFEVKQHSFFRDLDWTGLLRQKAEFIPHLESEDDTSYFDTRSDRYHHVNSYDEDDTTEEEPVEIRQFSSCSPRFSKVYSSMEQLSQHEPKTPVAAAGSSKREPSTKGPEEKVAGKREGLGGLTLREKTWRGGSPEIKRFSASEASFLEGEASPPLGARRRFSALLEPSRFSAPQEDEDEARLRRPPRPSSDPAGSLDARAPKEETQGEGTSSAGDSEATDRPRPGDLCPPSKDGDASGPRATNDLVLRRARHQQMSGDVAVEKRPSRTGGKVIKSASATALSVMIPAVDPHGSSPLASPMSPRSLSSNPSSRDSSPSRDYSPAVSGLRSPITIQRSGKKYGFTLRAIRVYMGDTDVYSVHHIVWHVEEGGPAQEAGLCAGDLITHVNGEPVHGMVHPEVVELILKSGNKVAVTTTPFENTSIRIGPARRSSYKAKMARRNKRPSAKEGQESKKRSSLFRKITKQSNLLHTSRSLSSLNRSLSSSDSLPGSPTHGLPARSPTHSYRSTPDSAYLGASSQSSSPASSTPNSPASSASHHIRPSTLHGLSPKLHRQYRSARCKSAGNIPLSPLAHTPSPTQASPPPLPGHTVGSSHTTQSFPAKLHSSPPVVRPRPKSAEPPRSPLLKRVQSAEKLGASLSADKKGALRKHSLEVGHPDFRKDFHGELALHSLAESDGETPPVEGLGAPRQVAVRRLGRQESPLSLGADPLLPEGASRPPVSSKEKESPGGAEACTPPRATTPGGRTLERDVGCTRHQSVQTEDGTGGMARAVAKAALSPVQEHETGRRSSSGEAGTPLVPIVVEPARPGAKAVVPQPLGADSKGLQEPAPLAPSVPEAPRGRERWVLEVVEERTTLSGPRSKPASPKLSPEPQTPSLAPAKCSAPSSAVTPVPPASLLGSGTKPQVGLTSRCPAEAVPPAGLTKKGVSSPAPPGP
Description: as §1

[13] = target: CDK4 (Homo sapiens, UniProt P11802); assay: KINOMEscan; details: read-out: Percent Control
Description: as §1

[14] = target: RET(V804L) (Homo sapiens, UniProt P07949, V804L); assay: KINOMEscan; details: read-out: Percent Control
Description: as §1

[15] = target: ANKK1 (Homo sapiens, UniProt Q8NFD2); assay: KINOMEscan; details: read-out: Percent Control
Description: as §1

[16] = target: SRPK3 (Homo sapiens, UniProt Q9UPE1); assay: KINOMEscan; details: read-out: Percent Control
SRPK3, sequence (Q9UPE1 whole entry): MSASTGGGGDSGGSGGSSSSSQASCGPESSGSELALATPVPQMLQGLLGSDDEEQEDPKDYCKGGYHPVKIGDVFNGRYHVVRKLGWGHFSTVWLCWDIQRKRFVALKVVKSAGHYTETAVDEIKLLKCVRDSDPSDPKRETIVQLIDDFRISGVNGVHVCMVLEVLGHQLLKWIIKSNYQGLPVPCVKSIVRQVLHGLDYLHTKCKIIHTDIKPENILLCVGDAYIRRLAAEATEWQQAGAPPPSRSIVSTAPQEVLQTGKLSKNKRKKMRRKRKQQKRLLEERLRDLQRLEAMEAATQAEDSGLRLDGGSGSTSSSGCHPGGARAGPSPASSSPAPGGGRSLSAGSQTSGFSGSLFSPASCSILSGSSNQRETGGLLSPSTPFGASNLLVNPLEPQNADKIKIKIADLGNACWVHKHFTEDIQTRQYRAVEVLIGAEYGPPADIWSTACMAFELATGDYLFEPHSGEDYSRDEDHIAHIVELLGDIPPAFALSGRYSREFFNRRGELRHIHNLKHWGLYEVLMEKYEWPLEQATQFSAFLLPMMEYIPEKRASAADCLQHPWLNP
Description: as §1

[17] = target: FGFR1 (Homo sapiens, UniProt P11362); assay: KINOMEscan; details: read-out: Percent Control
Description: as §1

[18] = target: CLK3 (Homo sapiens, UniProt P49761); assay: KINOMEscan; details: read-out: Percent Control
Description: as §1

[19] = target: EGFR(G719S) (Homo sapiens, UniProt P00533, G719S); assay: KINOMEscan; details: read-out: Percent Control
Description: as §1

[20] = target: CSNK1A1L (Homo sapiens, UniProt Q8N752); assay: KINOMEscan; details: read-out: Percent Control
Description: as §1

[21] = target: CDKL2 (Homo sapiens, UniProt Q92772); assay: KINOMEscan; details: read-out: Percent Control
Description: as §1

[22] = target: TIE2 (Homo sapiens, UniProt Q02763); assay: KINOMEscan; details: read-out: Percent Control
Description: as §1

In the case of `O=C1CCC(N2C(=O)c3cccc(NCCCCCCCCNC(=O)N4CC[C@H](NC5=Nc6cc(F)ccc6N(CC(F)F)c6ccc(Cl)cc65)C4)c3C2=O)C(=O)N1` (stereo partly drawn) [BJG-05-039, (3S)-3-((2-Chloro-5-(2,2-difluoroethyl)-8-fluoro-5H-dibenzo[b,e][1,4]diazepin-11-yl)amino)-N-(8-((2-(2,6-dioxopiperidin-3-yl)-1,3-dioxoisoindolin-4-yl)amino)octyl)pyrrolidine-1-carboxamide], the remaining binding at 10 µM [1] is reported as 94%, the “Ability to degrade PAK1” value [2] is reported as “most promising profile” and the remaining binding at 10 µM [3] is reported as 94%. The remaining binding at 10 µM [4] was 100%, the remaining binding at 10 µM [5] was 99% and the remaining binding at 10 µM [6] was 100%. For the same compound, the “Phosphorylation of MEK S298” value [7] was “inhibited phosphorylation of MEK S298”, the remaining binding at 10 µM [8] was 83% and the remaining binding at 10 µM [9] was 76%. The remaining binding at 10 µM [10] was 100%, the remaining binding at 10 µM [11] was 53% and the remaining binding at 10 µM [12] was 71%. For the same compound, the remaining binding at 10 µM [13] was 86%, the remaining binding at 10 µM [14] was 99% and the remaining binding at 10 µM [15] was 87%. For the same compound, the remaining binding at 10 µM [16] was 93%, the remaining binding at 10 µM [17] was 97% and the remaining binding at 10 µM [18] was 62%. It also gave a remaining binding at 10 µM [19] of 84%, a remaining binding at 10 µM [20] of 83% and a remaining binding at 10 µM [21] of 77%. For the same compound, the remaining binding at 10 µM [22] was 98%.
